Experimental data published in patent US6740680B1, “Pharmaceutical compositions to tetrac and methods of use thereof” (Becton Pharma, Inc., priority 1999, dated 2004).
Where two headings read alike, the source gives them in different places.

Experiments:
Monodeiodinase type 2 = target: T1, Monodeiodinase type 2 (Rattus norvegicus, UniProt P70551); test: Addition of Tetrac to monodeiodinase type 2 assay with microsomal protein from brain cortex; type: biochemical; conditions: 1 fmol Tetrac/μg protein added
T1 construct: monodeiodinase type 2 assay using microsomol protein from brain cortex; from tissue; host or cells: brain cortex microsomal protein
T1 sequence (P70551 1-266): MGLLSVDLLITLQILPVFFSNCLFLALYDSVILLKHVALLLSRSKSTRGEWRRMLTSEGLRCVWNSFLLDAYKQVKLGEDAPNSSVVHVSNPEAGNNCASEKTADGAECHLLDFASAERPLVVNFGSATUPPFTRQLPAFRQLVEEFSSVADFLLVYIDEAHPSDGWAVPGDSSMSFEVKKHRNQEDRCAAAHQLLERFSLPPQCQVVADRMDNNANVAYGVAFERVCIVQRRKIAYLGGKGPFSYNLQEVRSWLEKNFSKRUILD
Description: (§1) Monodeiodinase type 1 and 2 activities. Monodeiodinase type 1 and type 2 activities were determined in tissue homogenates by measuring the release of radioiodide from [^125I]rT3 according to the method of Leonard and Rosenberg (Leonard, J. L. et al. Endocrinology (1980) 106: 444-451).
Monodeiodinase type 1 activity was measured in liver homogenates using 1 μM rT3 and 1 mM DTT with 10 min of incubation, whereas for heart, 0.01 μM rT3 and 10 mM DTT with 1 hour of incubation. Monodeiodinase type 2 activity was measured in brown adipose tissue (BAT) and cerebral cortex using 1 nM rT3, 10 mM DTT and 1 mM propylthiouracil (PTU) with 1 hour of incubation. Protein concentrations were measured by the method of Bradford (Bio-Rad Laboratories GmbH, Munich, Germany) with bovine gammaglobulin as the protein standard. In order to study the effect of circulating Tetrac on the enzyme activities, 2 rats were injected intraperitoneally with 10 μCi ^125I Tetrac and killed 6 hours later. The tissue homogenates were extracted with 3 volumes of ethanol-NH3 (97:3). After 10 minutes centrifugation at 15,000 g, the supernatant was vacuum dried and applied to TLC (Merck 254, Toluol, acetic acid, water: 2:2:1). […] The calculated tissue concentrations were: liver: 1.9, heart: 2.29 and brain cortex: 0.47 fluol Tetrac/μg protein. […]

TSH = test: Serum TSH in hypothyroid rats infused with Tetrac or T4; type: in vivo, rat; conditions: for Serum TSH: hypothyroid rats, mean ± SEM
Description: Seventy-nine male SIVZ rats were purchased from the breeder (Institut für Labortierkunde des Universität Zürich, Zürich, Switzerland). […] The infusion lasted 13 days. […] An euthyroid control group was included. The animals were weighed every 2 days. Rats were sacrificed by decapitation and blood was collected and stored at […] until use. Tissues (liver, heart, brown adipose tissue, cerebral cortex and pituitary) were removed rapidly, frozen in liquid nitrogen and stored at […] until use.
Hornone assays. […] Endocrinol. […] Serum TSH measurements were performed with reagents kindly provided by the National Pituitary Program, NIAMDD, NIH (Bethesda, USA).

Monodeiodinase type 1 = Monodeiodinase type 1 activity in liver and heart homogenates of infused rats; type: in vivo, rat
Description: (§2) Seventy-nine male SIVZ rats were purchased from the breeder (Institut für Labortierkunde des Universität Zürich, Zürich, Switzerland). They were rendered hypothyroid by a single injection of [^131I]Na (100 μCi/rat) and before and throughout the experiment 0.02% 2-mercapto-1-methylimidazol (MMI) was added to drinking water. In order to have an euthyroid control group of similar weight and identical age, 10 rats received only MMI in the drinking water and 2 weeks before implanting the minipumps, MMI was withdrawn. Osmotic minipumps (secretion rate 0.25 μl/hour, duration 14 days) were implanted intraperitoneally (i.p.) 2 months after the injection of [^131I]Na. The minipumps were filled with T4 or Tetrac dissolved in 0.05 N NaOH, 2% BSA and 100,000 cpm [^125I]T4 or [^125I]Tetrac as control of their secretion rates. The infusion lasted 13 days. 0, 1.5, 4.5, 13.5 and 40.5 nmol Tetrac/day/100 g or 0.5, 1.5, 4.5 and 13.5 nmol T4/day/100 g bodyweight (BW) (n=4/dose) were infused. An euthyroid control group was included. The animals were weighed every 2 days. Rats were sacrificed by decapitation and blood was collected and stored at […] until use. Tissues (liver, heart, brown adipose tissue, cerebral cortex and pituitary) were removed rapidly, frozen in liquid nitrogen and stored at […] until use.
as §1
Monodeiodinase type 1 activity was measured in liver homogenates using 1 μM rT3 and 1 mM DTT with 10 min of incubation, whereas for heart, 0.01 μM rT3 and 10 mM DTT with 1 hour of incubation. Monodeiodinase type 2 activity was measured in brown adipose tissue (BAT) and cerebral cortex using 1 nM rT3, 10 mM DTT and 1 mM propylthiouracil (PTU) with 1 hour of incubation. Protein concentrations were measured by the method of Bradford (Bio-Rad Laboratories GmbH, Munich, Germany) with bovine gammaglobulin as the protein standard. In order to study the effect of circulating Tetrac on the enzyme activities, 2 rats were injected intraperitoneally with 10 μCi ^125I Tetrac and killed 6 hours later. The tissue homogenates were extracted with 3 volumes of ethanol-NH3 (97:3). After 10 minutes centrifugation at 15,000 g, the supernatant was vacuum dried and applied to TLC (Merck 254, Toluol, acetic acid, water: 2:2:1). In order to calculate the tissue concentrations, the highest serum Tetrac levels were used (406 pmol/ml). The calculated tissue concentrations were: liver: 1.9, heart: 2.29 and brain cortex: 0.47 fluol Tetrac/μg protein.

[1] = Serum T3, T4, Triac and Tetrac levels in infused rats; type: in vivo; conditions: male, SIVZ, rat, intraperitoneal, mean ± SEM, read-out: Serum Tetrac
Description: as §2
Hornone assays. Total serum T4, T3, Tetrac, Triac and TSH levels (intra-assay coefficient of variation 7 to 10%, inter-assay coefficient of variation 12 to 15%) were measured using the method of Burger, A., Sakoloff, C., Staeheli, V., Vallotton, M. D., and Ingbar, S. H. Acta. Endocrinol. (Copenh.) 80: 58-69 (1975). Serum TSH measurements were performed with reagents kindly provided by the National Pituitary Program, NIAMDD, NIH (Bethesda, USA). The detection limits were 0.80 ng TSH/ml; 9.5 pmol T4/ml; 0.16 pmol T3/ml; 10 pmol Tetrac/ml and 0.52 pmol Triac/ml.

O=C(O)Cc1cc(I)c(Oc2cc(I)c(O)c(I)c2)c(I)c1 [Tetrac, 3,3′,5,5′-tetraiodothyroacetic acid]
Monodeiodinase type 2 activity, % of the full activity (Monodeiodinase type 2): 90.5% | Serum TSH (TSH; infusion 1.5 nmol/day/100 g BW): 90.3 ± 8.6 ng/mL | Serum TSH (TSH; infusion 4.5 nmol/day/100 g BW): 4.6 ± 0.5 ng/mL | Serum TSH (TSH; infusion 13.5 nmol/day/100 g BW): 1.2 ± 0.3 ng/mL | Serum TSH (TSH; infusion 40.5 nmol/day/100 g BW): <0.8 ng/mL | Serum TSH concentration, mean of treatment group (TSH; mean over all dose levels of the treated rats, p=<0.04): 24 ng/mL | Residual Monodeiodinase type 1 activity, Tetrac/T4 (activity of Tetrac in % of T4) (Monodeiodinase type 1; Liver, at equal serum TSH concentration): 59% | Residual Monodeiodinase type 1 activity, adjusted mean (Monodeiodinase type 1; Liver, infused rats, adjusted group mean at the mean Ln (TSH) concentration): 106 | Cardiac monodeiodinase type 1 activity, response to increasing doses (in words) (Monodeiodinase type 1; heart, FIG. 2a, compared to T4, p<0.001): weak response | concentration at 13 days ([1]; Tetrac infusion 1.5 nmol/day/100 g BW): 168 ± 16 nM | concentration at 13 days ([1]; Tetrac infusion 4.5 nmol/day/100 g BW): 332 ± 19 nM | concentration at 13 days ([1]; Tetrac infusion 13.5 nmol/day/100 g BW): 458 ± 27 nM | concentration at 13 days ([1]; Tetrac infusion 40.5 nmol/day/100 g BW): 406 ± 57 nM
